In paper PMC6220303 (EMBO Molecular Medicine, 2018):

What was measured:
[1] = system: healthy participants ≥ 60 years; test: Adverse events after once-daily dosing over two weeks (Appendix Table S7); format: in vivo, human
[2] = Shelf life of the clinical capsule form; format: physicochemical; settings: kept refrigerated
rats = test: Long-term toxicology studies in rats; format: in vivo, rat
Description: In vivo animal toxicity studies were performed according to ICH guidance for industry M3(R2) and conformed to the Institutional Animal Care and Use Guidelines for the contract laboratory and sponsor. […] Recovery was assessed after a 12‐week treatment‐free period. Beagle dogs from Marshall BKU UK, 11 months of age, were given 0 (vehicle), 5, 15, or 30 mg/kg/day for 39 weeks. Vehicle consisted of 0.5% (w/v) methylcellulose (1,500 cPS) in 0.1% (v/v) polysorbate 80 (Tween®‐80) in reverse osmosis water. At necropsy, tissues were immersion fixed in 10% neutral‐buffered formalin or modified Davidson's solution and then processed by routine methods to paraffin block and hematoxylin–eosin (H&E)‐stained histologic slides.

[3] = system: healthy participants ≥ 60 years; test: Adverse events after single dose (Appendix Table S5); format: in vivo, human
Description: For further details, see the Appendix Table S10 in Appendix and the accompanying clinical protocols synopsis (Appendix Table S11).
Appendix Table S3. Overview of completed clinical studies with CNP520
Study description Population No. of Participants Dose/Frequency […]
First-in-human, randomized, 18-55 yrs 38 / 14 Single dose (10, 30, 90, […]
controlled, single and multiple CNP520 vs placebo) ascending oral dose study to Single dose (10, 90, 300,

dogs = test: Cardiovascular safety pharmacology in dogs; format: in vivo, dog
Ghrelin receptor (GHS) = Ghrelin receptor (GHS) (Homo sapiens, UniProt Q92847); test: Receptor panel binding; settings: read-out: Inhibition at 10 µM
Description: Cellular Aβ release assays were done in CHO cells stably transfected with human wild‐type and human APP were done as described (Neumann et al, 2015). Determinations of logD, pKa, and binding to brain homogenates were done internally at Novartis, Basel. Plasma protein binding was determined by equilibrium dialysis using diluted plasma from the corresponding species. MDR‐1‐MDCK cells were obtained from Prof. A. Berns, Netherlands Cancer Institute, Amsterdam NL, and bi‐directional transport measurements were done as described (Rueeger et al, 2011). Receptor binding assays were done against an internal receptor panel and externally at Ricerca Biosciences, Peitou, Taiwan. In vitro binding and cellular patch clamp assays for hERG were done at Preclinical Safety, Novartis, Basel.

Sequence of Ghrelin receptor (GHS) (Q92847 whole entry): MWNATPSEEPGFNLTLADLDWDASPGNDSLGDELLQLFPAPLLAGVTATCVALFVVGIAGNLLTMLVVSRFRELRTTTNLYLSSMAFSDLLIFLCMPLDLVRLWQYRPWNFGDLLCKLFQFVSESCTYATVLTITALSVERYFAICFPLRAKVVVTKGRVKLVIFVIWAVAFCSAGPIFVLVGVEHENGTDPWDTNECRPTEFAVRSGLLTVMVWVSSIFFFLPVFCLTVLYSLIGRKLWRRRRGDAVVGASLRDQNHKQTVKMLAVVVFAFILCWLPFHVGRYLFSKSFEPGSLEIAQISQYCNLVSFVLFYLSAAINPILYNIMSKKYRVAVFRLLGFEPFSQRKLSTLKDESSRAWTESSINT

## C[C@@]1(c2nc(NC(=O)c3ncc(C(F)(F)F)cc3Cl)ccc2F)CO[C@@](C)(C(F)(F)F)C(N)=N1 [CNP520]
[1]; 10 mg once daily, N = 9
  AE incidence: Ear and labyrinth disorders: 0 (0.0) n (%)
  AE incidence: Eye disorders: 1 (11.1) n (%)
  AE incidence: Gastrointestinal disorders: 3 (33.3) n (%)
  AE incidence: General disorders and administration site conditions: 0 (0.0) n (%)
  AE incidence: Infections and infestations: 2 (22.2) n (%)
  AE incidence: Metabolism and nutrition disorders: 0 (0.0) n (%)
  AE incidence: Nervous system disorders: 4 (44.4) n (%)
  AE incidence: Psychiatric disorders: 1 (11.1) n (%)
  AE incidence: Renal and urinary disorders: 0 (0.0) n (%)
  AE incidence: Skin and subcutaneous tissue disorders: 0 (0.0) n (%)
[1]; 30 mg once daily, N = 9
  AE incidence: Ear and labyrinth disorders: 1 (11.1) n (%)
  AE incidence: Eye disorders: 0 (0.0) n (%)
  AE incidence: Gastrointestinal disorders: 2 (22.2) n (%)
  AE incidence: General disorders and administration site conditions: 1 (11.1) n (%)
  AE incidence: Infections and infestations: 2 (22.2) n (%)
  AE incidence: Metabolism and nutrition disorders: 0 (0.0) n (%)
  AE incidence: Nervous system disorders: 0 (0.0) n (%)
  AE incidence: Psychiatric disorders: 0 (0.0) n (%)
  AE incidence: Respiratory, thoracic and mediastinal disorders: 0 (0.0) n (%)
  AE incidence: Skin and subcutaneous tissue disorders: 0 (0.0) n (%)
  Participants with any AE(s): 5 (55.6) n (%)
[1]; 90 mg once daily, N = 9
  AE incidence: Ear and labyrinth disorders: 0 (0.0) n (%)
  AE incidence: Eye disorders: 1 (11.1) n (%)
  AE incidence: Gastrointestinal disorders: 3 (33.3) n (%)
  AE incidence: General disorders and administration site conditions: 0 (0.0) n (%)
  AE incidence: Infections and infestations: 2 (22.2) n (%)
  AE incidence: Metabolism and nutrition disorders: 0 (0.0) n (%)
  AE incidence: Nervous system disorders: 1 (11.1) n (%)
  AE incidence: Psychiatric disorders: 0 (0.0) n (%)
  AE incidence: Renal and urinary disorders: 1 (11.1) n (%)
  AE incidence: Respiratory, thoracic and mediastinal disorders: 1 (11.1) n (%)
  AE incidence: Skin and subcutaneous tissue disorders: 0 (0.0) n (%)
  Participants with any AE(s): 6 (66.7) n (%)
[1]; 300 mg once daily, N = 8
  AE incidence: Eye disorders: 0 (0.0) n (%)
  AE incidence: Gastrointestinal disorders: 2 (25.0) n (%)
  AE incidence: General disorders and administration site conditions: 1 (12.5) n (%)
  AE incidence: Infections and infestations: 0 (0.0) n (%)
  AE incidence: Metabolism and nutrition disorders: 2 (25.0) n (%)
  AE incidence: Nervous system disorders: 3 (37.5) n (%)
  AE incidence: Psychiatric disorders: 0 (0.0) n (%)
  AE incidence: Renal and urinary disorders: 1 (12.5) n (%)
  AE incidence: Respiratory, thoracic and mediastinal disorders: 0 (0.0) n (%)
  AE incidence: Skin and subcutaneous tissue disorders: 2 (25.0) n (%)
  Participants with any AE(s): 6 (75.0) n (%)
[2]
  shelf life of the capsule form: 24 months
rats; female rats
  dose with delayed ovulation and slightly reduced fecundity and fertility indices: ≥ 30 mg/kg/day
  safety margin: exposure at NOAEL vs exposure at 85 mg in Phase IIa: ≥ 7 fold
rats; female rats at ≥ 30 mg/kg/day, 90% in control animals
  fecundity and fertility indices: 74%
rats; male rats
  safety margin: exposure at NOAEL vs exposure at 85 mg in Phase IIa: ≥ 5 fold
rats; male rats, long-term toxicology
  dose with adverse (CNS/clinical) effects: ≥ 500 mg/kg/day
[3]; single dose 10 mg, N = 6
  AE incidence: Ear and labyrinth disorders: 0 (0.0) n (%)
  AE incidence: Eye disorders: 0 (0.0) n (%)
  AE incidence: Gastrointestinal disorders: 1 (16.7) n (%)
  AE incidence: General disorders and administration site conditions: 1 (16.7) n (%)
  AE incidence: Infections and infestations: 0 (0.0) n (%)
  AE incidence: Injury, poisoning and procedural complications: 0 (0.0) n (%)
  AE incidence: Metabolism and nutrition disorders: 1 (16.7) n (%)
  AE incidence: Nervous system disorders: 2 (33.3) n (%)
  AE incidence: Psychiatric disorders: 0 (0.0) n (%)
  AE incidence: Respiratory, thoracic and mediastinal disorders: 0 (0.0) n (%)
  AE incidence: Vascular disorders: 0 (0.0) n (%)
  Participants with at least one AE: 5 (83.3) n (%)
[3]; single dose 90 mg, N = 6
  AE incidence: Ear and labyrinth disorders: 0 (0.0) n (%)
  AE incidence: Eye disorders: 1 (16.7) n (%)
  AE incidence: Gastrointestinal disorders: 0 (0.0) n (%)
  AE incidence: General disorders and administration site conditions: 0 (0.0) n (%)
  AE incidence: Infections and infestations: 0 (0.0) n (%)
  AE incidence: Injury, poisoning and procedural complications: 0 (0.0) n (%)
  AE incidence: Metabolism and nutrition disorders: 0 (0.0) n (%)
  AE incidence: Nervous system disorders: 1 (16.7) n (%)
  AE incidence: Psychiatric disorders: 1 (16.7) n (%)
  AE incidence: Respiratory, thoracic and mediastinal disorders: 0 (0.0) n (%)
  AE incidence: Vascular disorders: 1 (16.7) n (%)
  Participants with at least one AE: 3 (50.0) n (%)
[3]; single dose 300 mg, N = 8
  AE incidence: Ear and labyrinth disorders: 1 (12.5) n (%)
  AE incidence: Eye disorders: 0 (0.0) n (%)
  AE incidence: Gastrointestinal disorders: 0 (0.0) n (%)
  AE incidence: General disorders and administration site conditions: 0 (0.0) n (%)
  AE incidence: Infections and infestations: 0 (0.0) n (%)
  AE incidence: Injury, poisoning and procedural complications: 0 (0.0) n (%)
  AE incidence: Metabolism and nutrition disorders: 0 (0.0) n (%)
  AE incidence: Nervous system disorders: 2 (25.0) n (%)
  AE incidence: Psychiatric disorders: 0 (0.0) n (%)
  AE incidence: Respiratory, thoracic and mediastinal disorders: 0 (0.0) n (%)
  AE incidence: Vascular disorders: 0 (0.0) n (%)
  Participants with at least one AE: 6 (75.0) n (%)
[3]; single dose 750 mg, N = 9
  AE incidence: Ear and labyrinth disorders: 0 (0.0) n (%)
  AE incidence: Eye disorders: 0 (0.0) n (%)
  AE incidence: Gastrointestinal disorders: 2 (22.2) n (%)
  AE incidence: General disorders and administration site conditions: 1 (11.1) n (%)
  AE incidence: Infections and infestations: 0 (0.0) n (%)
  AE incidence: Injury, poisoning and procedural complications: 3 (33.3) n (%)
  AE incidence: Metabolism and nutrition disorders: 0 (0.0) n (%)
  AE incidence: Nervous system disorders: 3 (33.3) n (%)
  AE incidence: Psychiatric disorders: 0 (0.0) n (%)
  AE incidence: Respiratory, thoracic and mediastinal disorders: 0 (0.0) n (%)
  AE incidence: Vascular disorders: 0 (0.0) n (%)
  Participants with at least one AE: 8 (88.9) n (%)
dogs; 200 mg/kg
  free plasma C max: 230 nM
dogs; doses up to 200 mg/kg, and repeat dose toxicology studies (2, 4, 13, 39 weeks)
  effect on heart rate, ECG morphology, blood pressure: no effect on heart rate, ECG morphology, or blood pressure
Ghrelin receptor (GHS)
  inhibition at 10 µM: 79%
